{"source": "PubChem BioAssay AID1259407", "about": "(Chemical Carcinogenesis Research Information System (CCRIS), 2018)", "tested_on": "CCRIS mutagenicity, Ames/micronucleus/aberration tests", "experiment": "CCRIS mutagenicity studies", "note": "The source made the active and inactive calls. No rule for the calls is given here."}
{"smiles": "CC(C)[N+](=O)[O-]", "values": [{"measurement": "mutagenic call", "setting": "End Point: IN VITRO CHROMOSOMAL ABERRATIONS, Test System: CHINESE HAMSTER OVARY CELLS, Metabolic Activation: NONE", "value": "inactive; negative"}, {"measurement": "mutagenic call", "setting": "End Point: IN VITRO CHROMOSOMAL ABERRATIONS, Test System: CHINESE HAMSTER OVARY CELLS, Metabolic Activation: RAT, LIVER, S-9, AROCLOR 1254", "value": "inactive; negative"}, {"measurement": "mutagenic call", "setting": "End Point: In vitro chromosomal aberrations, Test System: Chinese hamster lung (CHL/IU) cells, Metabolic Activation: None", "value": "inactive; negative"}, {"measurement": "mutagenic call", "setting": "End Point: In vitro chromosomal aberrations, Test System: Chinese hamster lung (CHL/IU) cells, Metabolic Activation: Rat, Liver, S9, Phenobarbital and 5,6-benzoflavone", "value": "inactive; negative"}, {"measurement": "mutagenic call", "setting": "Test System: AMES SALMONELLA TYPHIMURIUM, Strain/Indicator: TA98(NR), Metabolic Activation: NONE, Method: PREINCUBATION", "value": "active; positive"}, {"measurement": "mutagenic call", "setting": "Test System: AMES SALMONELLA TYPHIMURIUM, Strain/Indicator: TA98(NR), Metabolic Activation: RAT, LIVER, S-9, CLOPHEN A-50, Method: PREINCUBATION", "value": "active; positive"}, {"measurement": "mutagenic call", "setting": "Test System: AMES SALMONELLA TYPHIMURIUM, Strain/Indicator: TA98, Metabolic Activation: RAT, LIVER, S-9, AROCLOR 1254, Method: PREINCUBATION", "value": "active; positive"}, {"measurement": "mutagenic call", "setting": "Test System: AMES SALMONELLA TYPHIMURIUM, Strain/Indicator: TA98, Metabolic Activation: RAT, LIVER, S-9, CLOPHEN A-50, Method: PREINCUBATION", "value": "active; positive"}, {"measurement": "mutagenic call", "setting": "Test System: AMES SALMONELLA TYPHIMURIUM, Strain/Indicator: TA98, Metabolic Activation: RAT, LIVER, S-9, KANECHLOR 500, Method: PREINCUBATION", "value": "active; positive"}, {"measurement": "mutagenic call", "setting": "Test System: AMES SALMONELLA TYPHIMURIUM, Strain/Indicator: TA100(NR), Metabolic Activation: NONE, Method: PREINCUBATION", "value": "active; positive"}, {"measurement": "mutagenic call", "setting": "Test System: AMES SALMONELLA TYPHIMURIUM, Strain/Indicator: TA100(NR), Metabolic Activation: RAT, LIVER, S-9, CLOPHEN A-50, Method: PREINCUBATION", "value": "active; positive"}, {"measurement": "mutagenic call", "setting": "Test System: AMES SALMONELLA TYPHIMURIUM, Strain/Indicator: TA100, Metabolic Activation: RAT, LIVER, S-9, AROCLOR 1254, Method: PREINCUBATION", "value": "active; positive"}, {"measurement": "mutagenic call", "setting": "Test System: AMES SALMONELLA TYPHIMURIUM, Strain/Indicator: TA100, Metabolic Activation: RAT, LIVER, S-9, AROCLOR, Method: PREINCUBATION", "value": "active; positive"}, {"measurement": "mutagenic call", "setting": "Test System: AMES SALMONELLA TYPHIMURIUM, Strain/Indicator: TA100, Metabolic Activation: RAT, LIVER, S-9, CLOPHEN A-50, Method: PREINCUBATION", "value": "active; positive"}, {"measurement": "mutagenic call", "setting": "Test System: AMES SALMONELLA TYPHIMURIUM, Strain/Indicator: TA100, Metabolic Activation: RAT, LIVER, S-9, KANECHLOR 500, Method: PREINCUBATION", "value": "active; positive"}, {"measurement": "mutagenic call", "setting": "Test System: AMES SALMONELLA TYPHIMURIUM, Strain/Indicator: TA102, Metabolic Activation: NONE, Method: PREINCUBATION", "value": "active; positive"}, {"measurement": "mutagenic call", "setting": "Test System: AMES SALMONELLA TYPHIMURIUM, Strain/Indicator: TA102, Metabolic Activation: RAT, LIVER, S-9, AROCLOR 1254, Method: PREINCUBATION", "value": "active; positive"}, {"measurement": "mutagenic call", "setting": "Test System: AMES SALMONELLA TYPHIMURIUM, Strain/Indicator: TA102, Metabolic Activation: RAT, LIVER, S-9, AROCLOR, Method: PREINCUBATION", "value": "active; positive"}, {"measurement": "mutagenic call", "setting": "Test System: CHINESE HAMSTER V-79, Strain/Indicator: V-79/6-THIOGUANINE, Metabolic Activation: NONE, Method: STANDARD PLATE", "value": "active; positive"}, {"measurement": "mutagenic call", "setting": "Test System: CHINESE HAMSTER V-79, Strain/Indicator: V-79/6-THIOGUANINE, Metabolic Activation: RAT, HEPATOCYTES", "value": "inactive; negative"}, {"measurement": "mutagenic call", "setting": "Test System: CHINESE HAMSTER V-79, Strain/Indicator: V-79/OUABAIN, Metabolic Activation: NONE", "value": "inactive; negative"}, {"measurement": "mutagenic call", "setting": "Test System: CHINESE HAMSTER V-79, Strain/Indicator: V-79/OUABAIN, Metabolic Activation: RAT, HEPATOCYTES", "value": "inactive; negative"}, {"measurement": "mutagenic call", "setting": "Test System: E. COLI, Strain/Indicator: WP2 UVRA (PKM101), Metabolic Activation: NONE, Method: PREINCUBATION", "value": "active; positive"}, {"measurement": "mutagenic call", "setting": "Test System: E. COLI, Strain/Indicator: WP2 UVRA (PKM101), Metabolic Activation: RAT, LIVER, S-9, KANECHLOR 1254, Method: PREINCUBATION", "value": "active; positive"}, {"measurement": "mutagenic call", "setting": "Test System: UDS HUMAN HEPATOCYTES, Strain/Indicator: THY INCORP, Metabolic Activation: NONE, Method: AUTORADIOGRAPHY", "value": "active; positive"}, {"measurement": "mutagenic call", "setting": "Test System: UDS HUMAN HEPATOCYTES, Strain/Indicator: THY-INCORP, Metabolic Activation: NONE, Method: AUTORADIOGRAPHY", "value": "active; positive"}, {"measurement": "mutagenic call", "setting": "Test System: UDS MOUSE HEPATOCYTES, Strain/Indicator: THY INCORP, Metabolic Activation: NONE, Method: AUTORADIOGRAPHY", "value": "active; positive"}, {"measurement": "mutagenic call", "setting": "Test System: UDS RAT HEPATOCYTES, Strain/Indicator: THY INCORP, Metabolic Activation: NONE", "value": "active; positive"}, {"measurement": "mutagenic call", "setting": "Test System: UDS RAT HEPATOCYTES, Strain/Indicator: THY INCORP, Metabolic Activation: NONE, Method: AUTORADIOGRAPHY", "value": "active; positive"}, {"measurement": "mutagenic call", "setting": "Test System: UDS RAT HEPATOCYTES, Strain/Indicator: THY-INCORP, Metabolic Activation: NONE, Method: AUTORADIOGRAPHY", "value": "active; positive"}, {"measurement": "mutagenic call", "setting": "Test System: UDS RODENT HEPATOCYTES, Strain/Indicator: THY INCORP (NON-S-PHASE), Metabolic Activation: IN VIVO, Method: AUTORADIOGRAPHY", "value": "active; positive"}, {"measurement": "mutagenic call", "setting": "Test System: UDS RODENT HEPATOCYTES, Strain/Indicator: THY INCORP (NON-S-PHASE), Metabolic Activation: NONE, Method: LIQUID SCINTILLATION COUNTING", "value": "active; positive"}, {"measurement": "mutagenic call", "setting": "Test System: UDS RODENT HEPATOCYTES, Strain/Indicator: THY INCORP (NON-S-PHASE), Metabolic Activation: NONE, Method: PREINCUBATION", "value": "inactive; negative"}]}
{"smiles": "CC(=O)N(O)c1ccc(Oc2ccc(Cl)cc2Cl)cc1", "values": [{"measurement": "mutagenic call", "setting": "Test System: AMES SALMONELLA TYPHIMURIUM, Strain/Indicator: TA100, Metabolic Activation: NONE, Method: STANDARD PLATE", "value": "inactive; negative"}, {"measurement": "mutagenic call", "setting": "Test System: AMES SALMONELLA TYPHIMURIUM, Strain/Indicator: TA100, Metabolic Activation: RAT, LIVER, S-9, KANECLOR 500, Method: STANDARD PLATE", "value": "active; positive"}]}
